Experimental data from patent publication US9375000B2, “Pesticidal arylpyrrolidines” (Bayer Intellectual Property GmbH, priority 2011, dated 2016).

Tests used:
Type in all cases: in vivo
[1] = tested on: Cucurbit Leaf Beetle (Aulacophora femoralis); assay: Cucurbit leaf beetle (Aulacophora femoralis) cucumber leaf dip test; conditions: after 7 days; for pest or weed control at 20 ppm: Aulacophora, foliar, 168 h, read-out: insecticidal activity
Procedure, shortened: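 Cucumber leaves dipped in compound formulated with DMF and polyoxyethylene alkyl phenyl ether, diluted in water, with ammonium salt or ammonium salt plus penetration enhancer at 1000 ppm added if necessary; dried leaves placed on sterilized soil with five second-instar larvae. Kept at 25° C; larval mortality counted after 7 days.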

Thrips palmi = Thrips palmi spray test (THRIPL); conditions: active compound concentration 20 ppm; after 6 days
Procedure: Unless not mentioned otherwise, the test solutions were prepared as follows:
Solvent: 3 parts by weight Dimethylformamide
Emulsifier: 1 part by weight Polyoxyethylene alkyl phenyl ether
In order to make an appropriate formulation of an active compound, 1 part by weight of the active compound is mixed with the above mentioned amount of solvent and emulsifier and the mixture is diluted with water to a prescribed concentration. Ammonium salt or ammonium salt and penetration enhancer in a dosage of 1000 ppm are added to the desired concentration if necessary.
The compound solutions are sprayed to a cucumber seedling (Cucumis sativus). After drying, the treated plant is placed in a plastic stand. About 100 thrips-eggs (Thrips palmi) on a piece of filter paper are attached to the plant and covered with a cage to keep 100% humidity. The plant is kept in a room at 23° C. After 6 days activity in % is evaluated by feeding damage degree. An insecticidal activity of 100 means that there was no feeding damage, whereas an insecticidal activity of 0% means that there is no difference to the untreated control.

[2] = tested on: Larvae of Spodoptera litura; assay: Larvae of Spodoptera litura, method using artificial feeds; conditions: artificial feed, after 7 days; for pest or weed control at 20 ppm: Spodoptera litura, 168 h, read-out: insecticidal activity (pesticidal ratio)
Procedure, shortened: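 Compound formulated in dimethylformamide with polyoxyethylene alkyl phenyl ether emulsifier, water-diluted and poured onto artificial diet. Five 3rd-instar Spodoptera litura larvae per cup, held at 25° C and 50-60% humidity. Mortality after 7 days expressed as pesticidal ratio.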

[3] = tested on: Two-Spotted Spider Mite (Tetranychus urticae); assay: Two-spotted spider mite (Tetranychus urticae) spray test on kidney bean; conditions: after 7 days; for pest or weed control at 20 ppm: Tetranychus urticae, 168 h, read-out: acaricidal activity
Procedure, shortened: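 Kidney bean plants at the two-leaf stage carried 50-100 adult mites and were sprayed one day later with compound in DMF/polyoxyethylene alkyl phenyl ether diluted in water. Ammonium salt and penetration enhancer at 1000 ppm were added if needed. Acaricidal activity (% mites killed) was scored after 7 days in a greenhouse.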

[4] = active compound concentration 20 ppm
[5] = active compound concentration 4 ppm

Structure (SMILES)	insecticidal activity [1, 4] [%]	insecticidal activity (pesticidal ratio) [2, 4] [%]	acaricidal activity [3, 4] [%]	other results
CCC(=O)NCc1ccc(N2CCC(c3cc(Cl)cc(Cl)c3)(C(F)(F)F)C2O)cc1F (mixture of isomers) [A1-96]	100			insecticidal activity (by feeding damage degree) (Thrips palmi): 90%
CCC(=O)NCc1ccc(N2CCC(c3ccc(F)c(C(F)(F)F)c3)(C(F)(F)F)C2O)nc1C(F)(F)F (mixture of isomers) [A3-233]	100	100		insecticidal activity (pesticidal ratio) [2, 5]: 100%; insecticidal activity [1, 5]: 100%; insecticidal activity (by feeding damage degree) (Thrips palmi): 90%
Cc1nc(N2CCC(c3cc(Cl)c(Cl)c(Cl)c3)(C(F)(F)F)C2O)ccc1CNC(=O)CC(F)(F)F (stereo not shown) [A3-84]	100	100	100	
O=C(NCc1ccc(N2CCC(c3cc(Cl)c(Cl)c(Cl)c3)(C(F)(F)F)C2O)nc1Br)C1CC1 (stereo not shown) [A3-115]	100	100	100	
O=C(CC(F)(F)F)NCc1ccc(N2CCC(c3cc(Cl)c(Cl)c(Cl)c3)(C(F)(F)F)C2O)nc1Br (stereo not shown) [A3-117]	100	100	100	
CCC(=O)NCc1ccc(N2CCC(c3cc(C(F)(F)F)cc(C(F)(F)F)c3)(C(F)(F)F)C2O)nc1C (stereo not shown) [A3-123]	100	100	100	
Cc1nc(N2CCC(c3cc(C(F)(F)F)cc(C(F)(F)F)c3)(C(F)(F)F)C2O)ccc1CNC(=O)CC1CC1 (stereo not shown) [A3-127]	100		100	insecticidal activity (pesticidal ratio) [2, 5]: 80%; insecticidal activity [1, 5]: 100%; acaricidal activity [3, 5]: 100%
Cc1nc(N2CCC(c3cc(C(F)(F)F)cc(C(F)(F)F)c3)(C(F)(F)F)C2O)ccc1CNC(=O)CC(F)(F)F (stereo not shown) [A3-128]	100	100	100	
CCc1nc(N2CCC(c3cc(C(F)(F)F)cc(C(F)(F)F)c3)(C(F)(F)F)C2O)ccc1CNC(=O)C1CC1 (stereo not shown) [A3-137]	100	100	100	
O=C(NCc1ccc(N2CCC(c3cc(C(F)(F)F)cc(C(F)(F)F)c3)(C(F)(F)F)C2O)nc1Br)C1CC1 (stereo not shown) [A3-159]	100	100	100	
O=C(CC(F)(F)F)NCc1ccc(N2CCC(c3cc(C(F)(F)F)cc(C(F)(F)F)c3)(C(F)(F)F)C2O)nc1Br (stereo not shown) [A3-161, N-[(6-{3-[3,5-bis(trifluoromethyl)phenyl]-2-hydroxy-3-(trifluoromethyl)pyrrolidin-1-yl}-2-bromopyridin-3-yl)methyl]-3,3,3-trifluoropropanamide]				pest or weed control at 20 ppm [2, 4]: 100%; pest or weed control at 20 ppm [1, 4]: 100%; pest or weed control at 20 ppm [3, 4]: 100%
O=C(NCc1ccc(N2CCC(c3cc(Cl)c(F)c(Cl)c3F)(C(F)(F)F)C2O)nc1Br)C1CC1 (stereo not shown) [A3-326]			100	insecticidal activity (pesticidal ratio) [2, 5]: 100%; insecticidal activity [1, 5]: 100%
CC(=O)NCc1ccc(N2CCC(c3cc(Cl)cc(Cl)c3F)(C(F)(F)F)C2O)nc1C(F)(F)F (stereo not shown) [A3-344]			100	insecticidal activity (pesticidal ratio) [2, 5]: 100%; insecticidal activity [1, 5]: 100%
CCC(=O)NCc1ccc(N2CCC(c3cc(Cl)cc(Cl)c3F)(C(F)(F)F)C2O)nc1C(F)(F)F (stereo not shown) [A3-345]			100	insecticidal activity (pesticidal ratio) [2, 5]: 100%; insecticidal activity [1, 5]: 100%
CC(=O)NCc1cc(F)c(N2CCC(c3cc(Cl)c(Cl)c(Cl)c3)(C(F)(F)F)C2O)nc1Cl (stereo not shown) [A3-366]				insecticidal activity (pesticidal ratio) [2, 5]: 100%; insecticidal activity (by feeding damage degree) (Thrips palmi): 98%
CCC(=O)NCc1cc(F)c(N2CCC(c3cc(Cl)c(Cl)c(Cl)c3)(C(F)(F)F)C2O)nc1Cl (stereo not shown) [A3-367]				insecticidal activity (pesticidal ratio) [2, 5]: 100%; insecticidal activity (by feeding damage degree) (Thrips palmi): 90%
O=C(NCc1cnc(N2CCC(c3cc(Cl)c(Cl)c(Cl)c3)(C(F)(F)F)C2O)nc1C(F)(F)F)C1CC1 (stereo not shown) [A4-16, N-({2-[2-hydroxy-3-(3,4,5-trichlorophenyl)-3-(trifluoromethyl)-pyrrolidin-1-yl]-4-(trifluoromethyl)pyrimidin-5-yl}methyl)cyclopropanecarboxamide]				pest or weed control at 20 ppm [2, 4]: 100%; pest or weed control at 20 ppm [1, 4]: 100%; pest or weed control at 20 ppm [3, 4]: 100%
O=C(CC(F)(F)F)NCc1cnc(N2CCC(c3cc(Cl)c(Cl)c(Cl)c3)(C(F)(F)F)C2O)nc1C(F)(F)F (stereo not shown) [A4-18]	100	100	100	
CSCC(=O)NCc1cnc(N2CCC(c3cc(Cl)c(Cl)c(Cl)c3)(C(F)(F)F)C2O)nc1C(F)(F)F (stereo not shown) [A4-20]	100	100	100	
C[S+]([O-])CC(=O)NCc1cnc(N2CCC(c3cc(Cl)c(Cl)c(Cl)c3)(C(F)(F)F)C2O)nc1C(F)(F)F (stereo not shown) [A4-21]	100	100	100	
CS(=O)(=O)CC(=O)NCc1cnc(N2CCC(c3cc(Cl)c(Cl)c(Cl)c3)(C(F)(F)F)C2O)nc1C(F)(F)F (stereo not shown) [A4-22]	100	100	100	
CCC(=O)NCc1cnc(N2CCC(c3cc(C(F)(F)F)cc(C(F)(F)F)c3)(C(F)(F)F)C2O)nc1C(F)(F)F (stereo not shown) [A4-24]	100	100	100	
O=C(NCc1cnc(N2CCC(c3cc(C(F)(F)F)cc(C(F)(F)F)c3)(C(F)(F)F)C2O)nc1C(F)(F)F)C1CC1 (stereo not shown) [A4-27]	100	100	100	
O=C(CC(F)(F)F)NCc1cnc(N2CCC(c3cc(C(F)(F)F)cc(C(F)(F)F)c3)(C(F)(F)F)C2O)nc1C(F)(F)F (stereo not shown) [A4-29]	100	100	100	
COCCC(=O)NCc1cnc(N2CCC(c3cc(C(F)(F)F)cc(C(F)(F)F)c3)(C(F)(F)F)C2O)nc1C(F)(F)F (stereo not shown) [A4-30]	100	100	100	
CSCC(=O)NCc1cnc(N2CCC(c3cc(C(F)(F)F)cc(C(F)(F)F)c3)(C(F)(F)F)C2O)nc1C(F)(F)F (stereo not shown) [A4-31]	100	100	100	
C[S+]([O-])CC(=O)NCc1cnc(N2CCC(c3cc(C(F)(F)F)cc(C(F)(F)F)c3)(C(F)(F)F)C2O)nc1C(F)(F)F (stereo not shown) [A4-32]	100	100	100	
CS(=O)(=O)CC(=O)NCc1cnc(N2CCC(c3cc(C(F)(F)F)cc(C(F)(F)F)c3)(C(F)(F)F)C2O)nc1C(F)(F)F (stereo not shown) [A4-33]	100	100	100	
CCC(=O)NCc1cnc(N2CCC(c3cc(Cl)c(Cl)c(Cl)c3)(C(F)(F)F)C2O)nc1C(F)F (stereo not shown) [A4-216]	100			insecticidal activity (pesticidal ratio) [2, 5]: 100%; acaricidal activity [3, 5]: 100%
